Legend:
Test in all cases: relative viability (nuclei count vs DMSO), 5 days (fraction); higher = more cells survive
[1] = compound: CC(C)C[C@H](NC(=O)[C@H](Cc1ccccc1)NC(=O)c1cnccn1)B(O)O [Bortezomib] + C[C@]1(O)C[C@@H](c2nc(-c3ccc4ccc(-c5ccccc5)nc4c3)c3c(N)nccn32)C1 [Linsitinib] (partner 1 µM)
In short: (§1)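 Five library-drug doses in √10 steps were combined with a fixed anchor-drug dose, or a single drug was given alone, by pin tool to lung cancer cell lines in 1536-well plates the day after seeding. Nuclei were stained and counted after 5 days. Relative viability is the nuclei count in treated wells over that in vehicle wells, taken as the median of duplicate plates.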

[2] = compound: CC(C)C[C@H](NC(=O)[C@H](Cc1ccccc1)NC(=O)c1cnccn1)B(O)O [Bortezomib] + CCNC(=O)c1noc(-c2cc(C(C)C)c(O)cc2O)c1-c1ccc(CN2CCOCC2)cc1 [Luminespib] (partner 0.01 µM)
In short: as §1

[3] = compound: CC1=CC(=NN1)NC2=CC(=NC(=N2)/C=C/C3=CC=CC=C3)N4CCN(CC4)C + CC(=O)c1c(C)c2cnc(Nc3ccc(N4CCNCC4)cn3)nc2n(C2CCCC2)c1=O [Palbociclib] (partner 0.5 µM)
In short: as §1

[4] = compound: CC(C)C[C@H](NC(=O)[C@H](Cc1ccccc1)NC(=O)c1cnccn1)B(O)O [Bortezomib] + COc1cccc2cc(-c3nc([C@H]4CC[C@H](C(=O)O)CC4)n4ncnc(N)c34)[nH]c12 [OSI-027] (partner 0.5 µM)
In short: as §1

Cell Line | relative viability ([1]; first compound 0.0002 µM) | relative viability ([1]; first compound 0.000632 µM) | relative viability ([1]; first compound 0.002 µM) | relative viability ([1]; first compound 0.006325 µM) | relative viability ([1]; first compound 0.02 µM) | relative viability ([2]; first compound 0.0002 µM) | relative viability ([2]; first compound 0.000632 µM) | relative viability ([2]; first compound 0.002 µM) | relative viability ([2]; first compound 0.006325 µM) | relative viability ([2]; first compound 0.02 µM) | relative viability ([3]; first compound 0.08 µM) | relative viability ([3]; first compound 0.253 µM) | relative viability ([3]; first compound 0.8 µM) | relative viability ([3]; first compound 2.53 µM) | relative viability ([3]; first compound 8 µM) | relative viability ([4]; first compound 0.0002 µM) | relative viability ([4]; first compound 0.000632 µM) | relative viability ([4]; first compound 0.002 µM) | relative viability ([4]; first compound 0.006325 µM) | relative viability ([4]; first compound 0.02 µM)
NCI-H2085 | 0.901 | 0.901 | 0.726 | 0.262 | 0.145 | 0.482 | 0.36 | 0.4 | 0.178 | 0.235 | 0.473 | 0.463 | 0.459 | 0.345 | 0.266 | 0.684 | 0.675 | 0.787 | 0.286 | 0.204
NCI-H2087 | 0.944 | 1.15 | 0.764 | 0.11 | 0.215 | 0.163 | 0.145 | 0.164 | 0.0644 | 0.0565 | 0.213 | 0.17 | 0.236 | 0.164 | 0.123 | 0.667 | 0.401 | 0.224 | 0.0576 | 0.0622
NCI-H2126 | 0.74 | 0.711 | 0.68 | 0.738 | 0.374 | 0.864 | 0.904 | 0.821 | 0.543 | 0.213 | 0.336 | 0.341 | 0.32 | 0.306 | 0.243 | 0.737 | 0.652 | 0.622 | 0.62 | 0.663
NCI-H2228 | 0.671 | 0.717 | 0.506 | 0.157 | 0.133 | 0.129 | 0.117 | 0.137 | 0.0914 | 0.093 | 0.64 | 0.727 | 0.518 | 0.0712 | 0.0545 | 0.51 | 0.674 | 0.294 | 0.0867 | 0.115
NCI-H2347 | 0.93 | 0.92 | 0.848 | 0.29 | 0.325 | 0.558 | 0.607 | 0.411 | 0.25 | 0.208 | 0.426 | 0.412 | 0.411 | 0.435 | 0.362 | 0.559 | 0.367 | 0.291 | 0.182 | 0.194
NCI-H2405 | 0.868 | – | 0.32 | 0.147 | 0.169 | 0.685 | 0.763 | 0.615 | 0.227 | 0.189 | 0.553 | 0.555 | 0.521 | 0.411 | 0.174 | 0.635 | 0.589 | 0.661 | 0.319 | 0.205
NCI-H3122 | 1.01 | 1.04 | 1.09 | 0.606 | 0.179 | 0.103 | 0.0765 | 0.105 | 0.118 | 0.113 | 0.207 | 0.19 | 0.224 | 0.174 | 0.165 | 0.993 | 1.03 | 0.935 | 0.206 | 0.133
PC-3 [JPC-3] | 0.989 | 0.929 | 0.87 | 0.916 | 0.186 | 0.663 | 0.669 | 0.505 | 0.226 | 0.127 | 0.537 | 0.587 | 0.54 | 0.529 | 0.491 | 0.807 | 0.824 | 0.806 | 0.446 | 0.122
PC-14 | 0.941 | 0.917 | 0.974 | 0.152 | 0.0932 | 0.153 | 0.163 | 0.13 | 0.0991 | 0.109 | 0.526 | 0.497 | 0.443 | 0.22 | 0.0464 | – | 0.765 | 0.714 | 0.033 | 0.0438
RERF-LC-KJ | 0.859 | – | 0.908 | 0.366 | 0.203 | 1.16 | 1.21 | 0.986 | 0.291 | 0.273 | 1.03 | 1.15 | 0.92 | 0.647 | 0.336 | 0.581 | 0.547 | 0.555 | 0.216 | 0.24
SK-LU-1 | 0.986 | 1.04 | 1.42 | 0.174 | 0.159 | 0.218 | 0.205 | 0.201 | 0.155 | 0.118 | 0.453 | 0.368 | 0.457 | 0.248 | 0.155 | 0.336 | 0.286 | 0.319 | 0.125 | 0.122
SK-MES-1 | 1.08 | 1.06 | 1.1 | 0.54 | 0.189 | 0.801 | 0.763 | 0.72 | 0.166 | 0.156 | 0.357 | 0.289 | 0.309 | 0.257 | 0.155 | 0.64 | 0.591 | 0.47 | 0.14 | 0.128
SW 1573 | 0.663 | 0.775 | 0.766 | 0.144 | 0.0774 | 0.162 | 0.222 | 0.214 | 0.0768 | 0.0532 | 0.378 | 0.442 | 0.301 | 0.131 | 0.0733 | 0.658 | 0.665 | 0.234 | 0.0635 | 0.0625
UMC-11 | 0.937 | 0.974 | 0.936 | 0.375 | 0.176 | 0.871 | 0.978 | 0.972 | 0.597 | 0.167 | 0.327 | 0.342 | 0.323 | 0.232 | 0.232 | 0.461 | 0.472 | 0.493 | 0.325 | 0.148
